Data taken from ChEMBL document CHEMBL4422649, “Soluble-type small-molecule CD4 mimics as HIV entry inhibitors” (Bioorg Med Chem Lett, 2019).
≈ marks a conversion by molar mass, not a printed value.

Experiments:
[1] = target: Envelope glycoprotein gp160 (Human immunodeficiency virus 1, UniProt Q6QLK5); assay: Binding affinity to HIV1 cYTA48P envelope glycoprotein gp120 infected in human TZM-b1 cells assessed as induction of conformational changes measured after 48 hrs; format: cell-based
[2] = Cytotoxicity against human TZM-b1 cells assessed as reduction in cell viability by CCK8 assay; format: cell-based
[3] = target: Envelope glycoprotein gp160 (Human immunodeficiency virus 1) (UniProt Q6QLK5); assay: Binding affinity to HIV1 cYTA48P envelope glycoprotein gp120 infected in human TZM-b1 cells assessed as induction of conformational changes by measuring combination index at 450:1 ratio of test compound to KD-247 measured after 48 hrs; format: cell-based
Envelope glycoprotein gp160 (Human immunodeficiency virus 1), sequence (Q6QLK5 1-814): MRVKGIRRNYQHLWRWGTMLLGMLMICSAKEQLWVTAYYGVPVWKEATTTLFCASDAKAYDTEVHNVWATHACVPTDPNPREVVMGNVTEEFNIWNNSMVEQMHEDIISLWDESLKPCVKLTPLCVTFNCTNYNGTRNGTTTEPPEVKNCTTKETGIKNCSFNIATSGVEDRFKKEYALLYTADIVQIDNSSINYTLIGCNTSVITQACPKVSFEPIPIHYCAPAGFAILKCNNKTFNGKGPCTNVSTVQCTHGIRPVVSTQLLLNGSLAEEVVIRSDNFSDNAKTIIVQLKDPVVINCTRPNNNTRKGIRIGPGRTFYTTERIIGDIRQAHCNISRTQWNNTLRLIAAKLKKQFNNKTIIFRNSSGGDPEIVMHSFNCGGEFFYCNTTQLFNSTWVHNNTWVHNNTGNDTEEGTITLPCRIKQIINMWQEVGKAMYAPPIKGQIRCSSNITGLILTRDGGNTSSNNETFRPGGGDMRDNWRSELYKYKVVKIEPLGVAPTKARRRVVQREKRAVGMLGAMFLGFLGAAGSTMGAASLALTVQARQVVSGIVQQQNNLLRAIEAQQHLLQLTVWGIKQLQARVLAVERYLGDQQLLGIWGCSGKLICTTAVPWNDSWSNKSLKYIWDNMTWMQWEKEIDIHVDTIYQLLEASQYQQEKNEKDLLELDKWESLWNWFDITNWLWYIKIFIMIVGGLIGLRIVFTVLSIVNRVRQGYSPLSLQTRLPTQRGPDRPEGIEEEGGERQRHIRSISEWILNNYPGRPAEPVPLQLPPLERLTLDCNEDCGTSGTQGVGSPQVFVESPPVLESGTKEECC

[4] = Aqueous solubility of the compound in phosphate buffered saline; format: physicochemical
[5] = target: Envelope glycoprotein gp160 (Human immunodeficiency virus 1) (UniProt Q6QLK5); assay: Binding affinity to HIV1 cYTA48P envelope glycoprotein gp120 infected in human TZM-b1 cells assessed as induction of conformational changes by measuring combination index at 15:1 ratio of test compound to KD-247 measured after 48 hrs; format: cell-based

Envelope glycoprotein gp160, sequence (Q6QLK5 whole entry): as the sequence (Q6QLK5 1-814) above

| IC50 [1] [µM] | CI [3] | solubility [4] [mM] | CI [5] | SMILES | CC50 [2] [µM] |
| --- | --- | --- | --- | --- | --- |
| 61 | – | – | – | CC1(C)CC(NC(=O)C(=O)Nc2ccc(Cl)cn2)CC(C)(C)N1 | > 300 |
| 63 | – | – | – | CC1(C)CC(NC(=O)C(=O)Nc2ccnc(F)c2)CC(C)(C)N1 | > 300 |
| 0.0035 | – | – | – | O=C1Nc2ccc(Cl)cc2[C@@](C#CC2CC2)(C(F)(F)F)O1 [EFAVIRENZ] | 20 |
| 46 | – | – | – | CC1(C)CC(NC(=O)C(=O)Nc2ccc(C(F)(F)F)cn2)CC(C)(C)N1 | > 300 |
| 7.6 | – | – | – | CC1(C)CC(NC(=O)C(=O)Nc2cnc(F)c(F)c2)CC(C)(C)N1 | > 300 |
| 59 | – | – | – | CC1(C)CC(NC(=O)C(=O)Nc2ccc(F)cn2)CC(C)(C)N1 | > 300 |
| 3.6 | 0.16 | – | – | CC1(C)CC(NC(=O)C(=O)Nc2ccnc(Br)c2)CC(C)(C)N1 | 295 |
| 2.3 | 0.2 | – | – | CC1(C)CC(NC(=O)C(=O)Nc2ccnc(Cl)c2)CC(C)(C)N1 | > 300 |
| 68 | – | – | – | CC1(C)CC(NC(=O)C(=O)Nc2ccc(I)cn2)CC(C)(C)N1 | 205 |
| 27 | – | – | – | COc1ccc(NC(=O)C(=O)NC2CC(C)(C)NC(C)(C)C2)cn1 | > 300 |
| 2.1 | 0.34 | 6.67 (≈ 2150 µg/mL) | – | CC1(C)CC(NC(=O)C(=O)Nc2ccc(F)nc2)CC(C)(C)N1 | > 300 |
| 4 | – | – | – | CC1(C)CC(NC(=O)C(=O)Nc2ccc(Cl)nc2)CC(C)(C)N1 | > 300 |
| 0.17 | – | 1.39 (≈ 470 µg/mL) | 0.52 | CC1(C)CC(NC(=O)C(=O)Nc2ccc(Cl)cc2)CC(C)(C)N1 | 116 |
| 1.2 | – | 3.62 (≈ 1390 µg/mL) | – | CC1(C)CC(NC(=O)C(=O)Nc2ccc(Br)nc2)CC(C)(C)N1 | > 300 |
| 42 | – | – | – | CC1(C)CC(NC(=O)C(=O)Nc2ccc(Br)cn2)CC(C)(C)N1 | 71 |

| SMILES | IC50 [1] [µM] | CI [3] | solubility [4] [mM] | CI [5] | CC50 [2] [µM] |
| --- | --- | --- | --- | --- | --- |
| O=C(Nc1ccc(Br)nc1)C(=O)NC1CCNC2(CCCCC2)C1 (centres undefined) | 1.2 | – | – | – | 180 |
| Cc1cccc(NC(=O)C(=O)NC2CC(C)(C)NC(C)(C)C2)n1 | > 100 | – | – | – | 257 |
| CC1(C)CC(NC(=O)C(=O)Nc2cccnc2)CC(C)(C)N1 | > 100 | – | – | – | > 300 |
| CC1(C)CC(NC(=O)C(=O)Nc2ccncc2)CC(C)(C)N1 | > 100 | – | – | – | > 300 |
| CC1(C)CC(NC(=O)C(=O)Nc2cccnc2Cl)CC(C)(C)N1 | > 100 | – | – | – | > 300 |
| O=C(Nc1ccc(F)nc1)C(=O)NC1CCNC2(CCCCC2)C1 (centres undefined) | 0.46 | – | – | – | > 300 |
